Assay results as given in ChEMBL document CHEMBL2074082, “Characterization of the monocarboxylate transporter 1 expressed in Xenopus laevis oocytes by changes in cytosolic pH” (Biochem J, 1998).

Legend:
[1] = target: T1, Monocarboxylate transporter 1 (Rattus norvegicus) (UniProt P53987); test: TP_TRANSPORTER: inhibition of lactate uptake(pHi charge) in Xenopus laevis oocytes; assay type: functional, cell-based; conditions: Oocyte
T1 sequence (whole entry): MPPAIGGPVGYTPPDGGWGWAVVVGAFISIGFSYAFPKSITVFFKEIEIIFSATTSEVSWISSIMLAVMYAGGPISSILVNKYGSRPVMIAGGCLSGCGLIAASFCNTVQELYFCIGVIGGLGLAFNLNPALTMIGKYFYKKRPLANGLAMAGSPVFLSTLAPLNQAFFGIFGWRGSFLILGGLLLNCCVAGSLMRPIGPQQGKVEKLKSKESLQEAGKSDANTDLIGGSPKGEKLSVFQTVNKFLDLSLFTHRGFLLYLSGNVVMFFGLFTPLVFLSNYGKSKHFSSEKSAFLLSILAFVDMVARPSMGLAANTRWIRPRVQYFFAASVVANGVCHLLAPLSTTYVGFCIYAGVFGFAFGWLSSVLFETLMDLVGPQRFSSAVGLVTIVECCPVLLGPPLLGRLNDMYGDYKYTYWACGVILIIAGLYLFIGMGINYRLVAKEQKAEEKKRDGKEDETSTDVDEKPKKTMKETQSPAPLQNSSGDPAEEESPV

[2] = target: T1, Monocarboxylate transporter 1 (Rattus norvegicus); test: TP_TRANSPORTER: change in intracellular pH(pHi)value in Xenopus laevis oocytes; assay type: functional, cell-based; conditions: Oocyte

## N#C/C(=C\c1ccc(O)cc1)C(=O)O
[1]
  Activity: inhibitor [+]

## CC(O)CC(=O)O (racemic)
[2]
  Activity: substrate [+]

## CC(=O)CC(=O)O
[2]
  Activity: substrate [+]
